Experimental data from ChEMBL document CHEMBL4334495, “Design and Biological Evaluation of m-Xylene Thioether-Stapled Short Helical Peptides Targeting the HIV-1 gp41 Hexameric Coiled-Coil Fusion Complex” (J Med Chem, 2019).
pEC50: −log10 of the molar value. Activity calls are given as the source filed them. No cut-off for these calls is given here. Starred links: 1 amine or outer side, 2 acyl side, 3 side chain; linkers in the order of their positions; H or OH if unused. Positions of bridges follow the written chain, without caps; N, C: chain ends. Non-standard residues stand in square brackets, D forms with d. Residues, ends and D or L forms follow the SMILES beside them. ξ: configuration not given here. mXylylene = c1cc(C[*:1])cc(C[*:2])c1; ξhCys = NC(CCS)C(=O)O

Key:
[1] = molecular target: Envelope glycoprotein gp160 (Human immunodeficiency virus 1) (UniProt Q6QLK5); test: Binding affinity to HIV1 GP41 using GP41 NHR derived N36 peptide at 500 uM incubated for 30 mins by size exclusion HPLC analysis
Chain of Envelope glycoprotein gp160 (Human immunodeficiency virus 1) (Q6QLK5 1-814): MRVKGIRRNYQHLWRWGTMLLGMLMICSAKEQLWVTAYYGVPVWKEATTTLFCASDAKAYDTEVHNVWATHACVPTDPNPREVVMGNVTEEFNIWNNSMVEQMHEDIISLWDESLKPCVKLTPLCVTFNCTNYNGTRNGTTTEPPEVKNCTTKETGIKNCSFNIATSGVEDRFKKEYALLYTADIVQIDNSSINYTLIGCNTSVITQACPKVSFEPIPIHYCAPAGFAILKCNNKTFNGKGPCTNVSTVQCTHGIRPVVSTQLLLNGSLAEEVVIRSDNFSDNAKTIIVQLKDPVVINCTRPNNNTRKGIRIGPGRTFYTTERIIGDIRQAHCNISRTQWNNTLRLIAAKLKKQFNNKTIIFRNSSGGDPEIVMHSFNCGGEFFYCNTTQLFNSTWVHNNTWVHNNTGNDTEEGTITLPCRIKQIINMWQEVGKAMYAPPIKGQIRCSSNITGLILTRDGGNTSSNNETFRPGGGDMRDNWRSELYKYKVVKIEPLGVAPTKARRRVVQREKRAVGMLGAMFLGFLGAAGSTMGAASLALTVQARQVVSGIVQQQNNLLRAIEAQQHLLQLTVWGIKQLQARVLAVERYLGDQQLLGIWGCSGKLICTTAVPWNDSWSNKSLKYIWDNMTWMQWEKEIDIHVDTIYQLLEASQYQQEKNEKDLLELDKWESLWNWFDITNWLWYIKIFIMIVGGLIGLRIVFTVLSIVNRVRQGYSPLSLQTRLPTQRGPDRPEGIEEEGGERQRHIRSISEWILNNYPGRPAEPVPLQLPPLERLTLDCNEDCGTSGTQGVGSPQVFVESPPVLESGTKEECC

[2] = molecular target: Envelope glycoprotein gp160 (Human immunodeficiency virus 1) (UniProt Q6QLK5); test: Binding affinity to HIV1 GP41 using GP41 NHR derived N36 peptide assessed as formation of secondary structure at 10 uM incubated for 30 mins by CD spectroscopy
[3] = Cytotoxicity against human TZM-bl cells assessed as reduction in viability after 2 days by XTT assay; format: cell-based
[4] = system: Human immunodeficiency virus 1; test: Antiviral activity against R5 tropic HIV-1 subtype-B Bal infected in human MT2 cells or CEMx174 5.25 M7 cells assessed as reduction in p24 Gag protein production measured at 4 days post-infection by ELISA; format: functional, cell-based, HIV-1 group M; conditions: Human immunodeficiency virus 1, Bal, 96 h
[5] = molecular target: Envelope glycoprotein gp160 (Human immunodeficiency virus 1) (UniProt Q6QLK5); test: Binding affinity to HIV1 GP41 using GP41 NHR derived N36 peptide assessed as melting temperature at 10 uM incubated for 30 mins by CD spectroscopy
[6] = molecular target: Envelope glycoprotein gp160 (Human immunodeficiency virus 1) (UniProt Q6QLK5); test: Binding affinity to HIV1 GP41 using GP41 NHR derived N36 peptide assessed as formation of oligomeric complex at 100 uM incubated for 30 mins by Coomassie blue R250 staining based Native-PAGE analysis
[7] = molecular target: Envelope glycoprotein gp160 (Human immunodeficiency virus 1) (UniProt Q6QLK5); test: Binding affinity to HIV1 GP41 using GP41 NHR derived N36 peptide assessed as molecular weight at 150 uM incubated for 30 mins by sedimentation Velocity analysis
[8] = system: Human immunodeficiency virus 1; test: Antiviral activity against X4 tropic HIV-1 subtype-B 3B infected in human MT2 cells or CEMx174 5.25 M7 cells assessed as reduction in p24 Gag protein production measured at 4 days post-infection by ELISA; format: functional, cell-based, HIV-1 group M; conditions: Human immunodeficiency virus 1, 3B, 96 h

Compound | Activity [1] | Activity [2] | CC50 at 48 h [3] [nM] | pEC50 [4] | Tm [5] [°C] | Activity [6] | Activity [7] [kDa] | pEC50 [8]
CC[C@H](C)[C@H](NC(C)=O)C(=O)N[C@@H](CCC(=O)O)C(=O)N[C@@H](C)C(=O)N[C@@H](CC(C)C)C(=O)N[C@H](C(=O)NC1CCSCc2cccc(c2)CSCCC(C(=O)N[C@@H](CCC(N)=O)C(=O)N[C@@H](CCC(N)=O)C(=O)N[C@@H](CCCNC(=N)N)C(=O)N[C@@H](CCCCN)C(=O)N[C@@H](CC(N)=O)C(=O)N[C@@H](CCC(=O)O)C(=O)N[C@@H](CCC(=O)O)C(=O)N[C@@H](C)C(=O)N[C@@H](CC(C)C)C(=O)N[C@@H](CCCNC(=N)N)C(=O)N[C@@H](CCC(=O)O)C(=O)N[C@@H](CC(C)C)C(N)=O)NC(=O)[C@H](CCC(N)=O)NC(=O)[C@H](C)NC(=O)[C@H](C)NC1=O)[C@@H](C)CC (stereo partly specified) (Ac-IEALI[ξhCys]AAQ[ξhCys]QQRKNEEALREL-NH2; linker 6-10 via mXylylene) | Active | Active | > 800000 | 7.56 | 56.9 | Active | 18.7 | 7.74
Ac-IEALIRAAQEQQEKNEAALREL-NH2 | – | – | – | – | 48.2 | – | – | –
CC[C@H](C)[C@H](NC(C)=O)C(=O)N[C@@H](CCC(=O)O)C(=O)N[C@@H](C)C(=O)N[C@@H](CC(C)C)C(=O)N[C@H](C(=O)NC1CCSCc2cccc(c2)CSCCC(C(=O)N[C@@H](CCC(N)=O)C(=O)N[C@@H](CCC(N)=O)C(=O)N[C@@H](CCC(=O)O)C(=O)N[C@@H](CCCCN)C(=O)N[C@@H](CC(N)=O)C(=O)N[C@@H](CCC(=O)O)C(=O)N[C@@H](C)C(=O)N[C@@H](C)C(=O)N[C@@H](CC(C)C)C(=O)N[C@@H](CCCNC(=N)N)C(=O)N[C@@H](CCC(=O)O)C(=O)N[C@@H](CC(C)C)C(N)=O)NC(=O)[C@H](CCC(N)=O)NC(=O)[C@H](C)NC(=O)[C@H](C)NC1=O)[C@@H](C)CC (stereo partly specified) (Ac-IEALI[ξhCys]AAQ[ξhCys]QQEKNEAALREL-NH2; linker 6-10 via mXylylene) | Active | Active | – | 7.16 | 52.4 | Active | 8.4 | 7.35
